Test results taken from US20040121965A1, “Method of treating resistant tumors” (Wyeth Holdings Corporation, priority 2002, published 2004).
Where two headings read alike, the source gives them in different places.

Key:
KB-V1 (MDR1++) = test: Cell survival assay (SRB), KB-V1 (MDR1++); conditions: for IC50: Homo sapiens
KB-3-1 = test: Cell survival assay (SRB), KB-3-1; type: cell-based, human; conditions: Homo sapiens
In short: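 Step 1: add serial compound dilutions to cells in duplicate. Step 2: incubate 3 days. Step 3: fix in 10% TCA for 1 hr at 4 °C, stain with 0.04% SRB for 10 min, wash in 1% acetic acid, solubilise in 10 mM Trizma Base, measure absorbance and derive the 50%-growth-inhibition concentration.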

KB-8-5 (MDR1+) = test: Cell survival assay (SRB), KB-8-5 (MDR1+); conditions: for IC50: Homo sapiens, MDR1, read-out: In vitro IC50 (nM) KB85
[1] = read-out: In vitro IC50 (nM) KBV1
[2] = KB 3-1, KB-3-1 cells (paclitaxel-sensitive parent), read-out: In vitro IC50 (nM) KB-3-1

Row | Compound | Ratio KBV1/KB (KB-V1 (MDR1++)) | IC50 (KB-V1 (MDR1++); [1]) [nM] | IC50 (KB-3-1; [2]) [nM] | Ratio KB85/KB (KB-8-5 (MDR1+)) | IC50 (KB-8-5 (MDR1+)) [nM] | IC50 (KB-V1 (MDR1++); read-out: In vitro IC50 KBV1) [nM] | IC50 (KB-3-1; KB 3-1, read-out: In vitro IC50 (nM) KB-3-1) [nM]
1 | CNC(C(=O)NC(C)C(=O)N(C)C(C=C(C)C(=O)O)C(C)C)C(C)(C)c1ccccc1.O=C(O)C(F)(F)F (stereo not drawn) [Example 103, 2,5-dimethyl-4-{methyl-[2-(3-methyl-2-methylamino-3-phenyl-butyrylamino)-propionyl]-amino}-hex-2-enoic Acid Trifluoroacetic Acid] | 15.3 | 2610 | 170 | 13.3 | 2260 |  | 
2 | CNC(C(=O)NC(C(=O)N(C)C(C=C(C)C(=O)O)CC(C)C)C(C)(C)C)C(C)(C)c1ccccc1.O=C(O)C(F)(F)F (stereo not drawn) [Example 104, 4-{[3,3-Dimethyl-2-(3-methyl-2-methylamino-3-phenyl-butyrylamino)-butyryl]-methyl-amino}-2,6-dimethyl-hept-2-enoic Acid Trifluoroacetic Acid] | 79.3 | 2200 | 27.7 | 1.8 | 50.5 |  | 
3 | CN[C@H](C(=O)N[C@H](C(=O)N(C)[C@H](/C=C(\C)C(N)=O)C(C)C)C(C)(C)C)C(C)(C)c1ccccc1 [Example 107, (E,4S)-4-[((2S)-3,3-dimethyl-2-{[(2S)-3-methyl-2-(methylamino)-3-phenylbutanoyI]amino}butanoyl)(methyl)amino]-2,5-dimethyl-2-hexenamide] | 46.4 | ≥ 3000 | 64.7 | 2.5 | 162 |  | 
4 | CNC(=O)/C(C)=C/[C@H](C(C)C)N(C)C(=O)[C@@H](NC(=O)[C@@H](NC)C(C)(C)c1ccccc1)C(C)(C)C [Example 108, (E,4S)-4-[((2S)-3,3-dimethyl-2-{[(2S)-3-methyl-2-(methylamino)-3-phenylbutanoyl]amino}butanoyl)(methyl)amino]-N,2,5-trimethyl-2-hexenamide] | 23.3 | 1590 | 68.3 | 1.9 | 129 |  | 
5 | CN[C@H](C(=O)N[C@H](C(=O)N(C)[C@H](/C=C(\C)C(=O)NCCC#N)C(C)C)C(C)(C)C)C(C)(C)c1ccccc1 [Example 109, N,β,β-trimethyl-L-phenylalanyl-N^1-{(1S,2E)-4-[(2-cyanoethyl)amino]-1-isopropyl-3-methyl-4-oxo-2-butenyl}-N^1,3-dimethyl-L-valinamide] | 23.3 | ≥ 3000 | 129 | 3.4 | 435 |  | 
6 | CN[C@H](C(=O)N[C@H](C(=O)N(C)[C@H](/C=C(\C)C(=O)Nc1ccc(N=[N+]=[N-])cc1)C(C)C)C(C)(C)C)C(C)(C)c1ccccc1 [Example 111, N,β,β-trimethyl-L-phenylalanyl-N^1-{(1S,2E)-4-[(4-azidophenyl)amino]-1-isopropyl-3-methyl-4-oxo-2-butenyl}-N^1,3-dimethyl-L-valinamide] | 12.6 | 2240 | 178 | 2.9 | 513 |  | 
7 | CN[C@H](C(=O)N[C@H](C(=O)N(C)[C@H](/C=C(\C)C(=O)NCCc1ccccc1)C(C)C)C(C)(C)C)C(C)(C)c1ccccc1 [Example 112, N,β,β-trimethyl-L-phenylalanyl-N^1-{(1S,2E)-1-isopropyl-3-methyl4-oxo4-[(2-phenylethyl)amino]but-2-enyl}-N^1,3-dimethyl-L-valinamide] | 10.8 | 1770 | 163 | 1.4 | 226 |  | 
8 | CCOC(=O)/C(C)=C/[C@H](C(C)C)N(C)C(=O)/C(C)=C/[C@H](C(C)C)N(C)C(=O)[C@@H](NC(=O)[C@@H](NC)C(C)(C)c1ccccc1)C(C)(C)C [Example 113, N,β,β-trimethyl-L-phenylalanyl-N^1-{(1S,2E)-4-[[(1S,2E)-4-ethoxy-1-isopropyl-3-methyl-4-oxobut-2-enyl](methyl)amino]-1-isopropyl-3-methyl-4-oxobut-2-enyl}-N^1,3-dimethyl-L-valinamide] | 32.3 | 582 | 18 | 1.9 | 34 |  | 
9 | CN[C@H](C(=O)N[C@H](C(=O)N(C)[C@H](/C=C(\C)C(=O)OCc1cccs1)C(C)C)C(C)(C)C)C(C)(C)c1ccccc1 [Example 115, N,β,β-trimethyl-L-phenylalanyl-N^1-[(1S,2E)-1-isopropyl-3-methyl-4-oxo-4-(thien-2-ylmethoxy)but-2-enyl]-N^1,3-dimethyl-L-valinamide] |  |  | 5 | 46.2 | 231 | > 3000 | 
10 | CCCCCCCCOC(=O)/C(C)=C/[C@H](C(C)C)N(C)C(=O)[C@@H](NC(=O)[C@@H](NC)C(C)(C)c1ccccc1)C(C)(C)C [Example 116, N,β,β-trimethyl-L-phenylalanyl-N^1-[(1S,2E)-1-isopropyl-3-methyl-4-(octyloxy)-4-oxobut-2-enyl]-N^1,3-dimethyl-L-valinamide] |  |  | 150 | 10.9 | 1630 | > 3000 | 
11 | CN[C@H](C(=O)N[C@H](C(=O)N(C)[C@H](/C=C(/C)C(=O)O)C(C)C)C(C)(C)C)C(C)(C)c1ccccc1 [Example 117, N,β,β-trimethyl-L-phenylalanyl-N^1-[(1S,2Z)-3-carboxy-1-isopropyl-2-butenyl]-N^1,3-dimethyl-L-valinamide] | 93.9 | 2630 |  | 2.1 | 58 |  | 28
12 | CN[C@H](C(=O)N[C@H](C(=O)N(C)[C@H](/C=C/C(=O)O)C(C)C)C(C)(C)C)C(C)(C)c1ccccc1 [Example 118, N,β,β-trimethyl-L-phenylalanyl-N^1-[(1S,2E)-3-carboxy-1-isopropylprop-2-enyl]-N^1,3-dimethyl-L-valinamide] | 15.7 | ≥ 3000 | 190 | 2.5 | 479 |  | 
13 | C=CC[C@@H](/C=C(\C)C(=O)O)N(C)C(=O)[C@@H](NC(=O)[C@@H](NC)C(C)(C)c1ccccc1)C(C)(C)C [Example 119, N,β,β-trimethyl-L-phenylalanyl-N^1-[(1S,2E)-1-allyl-3-carboxybut-2-enyl]-N^1,3-dimethyl-L-valinamide] |  |  | 55 | 3.0 | 164 | > 3000 | 
14 | C=CC(C)(C)[C@H](NC)C(=O)N[C@H](C(=O)N(C)[C@H](/C=C(\C)C(=O)O)C(C)C)C(C)(C)C [Example 121, (2E, 4S)-4-[((2S)-2-{[3,3-dimethyl-2-(methylamino)-4-pentenoyl]amino}-3,3-dimethylbutanoyl)(methyl)amino]-2,5-dimethyl-2-hexenoic Acid] | 22.0 | ≥ 3000 | 136 | 1.4 | 186 |  | 
15 | CN[C@H](C(=O)N[C@H](C(=O)N(C)[C@H](C[C@H](C)C(=O)O)C(C)C)C(C)(C)C)C(C)(C)c1ccccc1 [Example 123, N,β,β-trimethyl-L-phenylalanyl-N^1-[(1R,3S)-3-carboxy-1-isopropylbutyl]-N^1,3-dimethyl-L-valinamide] |  |  | 891 | 0.6 | 537 | > 3000 | 
16 | CCC(CC)(c1ccccc1)[C@H](NC)C(=O)N[C@H](C(=O)N(C)[C@H](/C=C(\C)C(=O)O)C(C)C)C(C)(C)C [Example 125, β,β-diethyl-N-methyl-L-phenylalanyl-N^1-[(1S,2E)-3-carboxy-1-isopropylbut-2-enyl]-N^1,3-dimethyl-L-valinamide] | 56.4 | 479 | 8.5 | 2.1 | 18 |  | 
17 | CCC(CC)(c1ccccc1)[C@@H](NC)C(=O)N[C@H](C(=O)N(C)[C@H](/C=C(\C)C(=O)O)C(C)C)C(C)(C)C [Example 126, β,β-diethyl-N-methyl-D-phenylalanyl-N^1-[(1S,2E)-3-carboxy-1-isopropylbut-2-enyl]-N^1,3-dimethyl-L-valinamide] | 63.3 | 1140 | 18 | 1.3 | 23 |  | 
18 | C/C(=C\[C@H](C(C)C)N(C)C(=O)[C@@H](NC(=O)[C@@H](N)Cc1cccc2ccccc12)C(C)(C)C)C(=O)O [Example 130, (2E,4S)-4-[((2S)-2-{[(2S)-2-Amino-3-(1-naphthyl)propanoyl]amino}-3,3-dimethylbutanoyl)(methyl)amino]-2,5-dimethyl-2-hexenoic Acid] | 49.8 | ≥ 3000 | 60.2 | 1.4 | 87 |  | 
19 | CN[C@H](C(=O)N[C@@H](C(=O)N(C)[C@H](/C=C(\C)C(=O)O)C(C)C)C(C)C)C(C)(C)c1ccccc1 [Example 131, N,β,β-trimethyl-L-phenylalanyl-N^1-[(1S,2E)-3-carboxy-1-isopropylbut-2-enyl]-N^1-methyl-D-valinamide] | 512.8 | ≥ 3000 | 6 | 2.0 | 12 |  | 
20 | CCOC(=O)/C(C)=C/[C@H](C(C)C)N(C)C(=O)[C@@H](NC(=O)[C@H](NC)C(C)(C)c1ccccc1)C(C)(C)C [Example 135, Ethyl (E,4S)-4-[((2S)-3,3-dimethyl-2-{[(2R)-3-methyl-2-(methylamino)-3-phenylbutanoyl]amino}butanoyl)(methyl)amino]-2,5-dimethyl-2-hexenoate] | 2.9 | 2640 | 909 | 2.3 | 2090 |  | 
